Reference: PubChem BioAssay (NCI)
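Briefly, cells in 96-well plates were exposed to five compound concentrations for 48 h, and endpoints were estimated by linear interpolation. Here, GI50 denotes the concentration required for 50% inhibition of growth. TGI is the concentration that stops growth completely.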

What was measured:
Assay in all cases: NCI-60 cell line screen, 48 h
A549 NSCLC = test system: A549 NSCLC
ACHN renal = test system: ACHN renal
BT-549 breast = test system: BT-549 breast
DU-145 prostate = test system: DU-145 prostate
HCT-116 colon = test system: HCT-116 colon
MALME-3M melanoma = test system: MALME-3M melanoma
NCI-H460 lung = test system: NCI-H460 lung
NCI-H522 lung = test system: NCI-H522 lung
OVCAR-5 ovarian = test system: OVCAR-5 ovarian
UACC-257 melanoma = test system: UACC-257 melanoma

SMILES	GI50 (A549 NSCLC) [µM]	TGI (A549 NSCLC) [µM]	GI50 (ACHN renal) [µM]	TGI (ACHN renal) [µM]	GI50 (BT-549 breast) [µM]	TGI (BT-549 breast) [µM]	GI50 (DU-145 prostate) [µM]	TGI (DU-145 prostate) [µM]	GI50 (HCT-116 colon) [µM]	TGI (HCT-116 colon) [µM]	GI50 (MALME-3M melanoma) [µM]	TGI (MALME-3M melanoma) [µM]	GI50 (NCI-H460 lung) [µM]	TGI (NCI-H460 lung) [µM]	GI50 (NCI-H522 lung) [µM]	TGI (NCI-H522 lung) [µM]	GI50 (OVCAR-5 ovarian) [µM]	TGI (OVCAR-5 ovarian) [µM]	GI50 (UACC-257 melanoma) [µM]	TGI (UACC-257 melanoma) [µM]
Fc1ccc(-c2c(-c3ccncc3)nc3n2CCS3)cc1	> 25	> 25	> 25	> 25	> 25	> 25	> 25	> 25	> 25	> 25	> 25	> 25	> 25	> 25	> 25	> 25	> 25	> 25	> 25	> 25
O=C1N[C@@H]2[C@@H](O)[C@@H](O)[C@H](O)C[C@H]2c2cc3c(c(O)c21)OCCO3	0.354	5.58	0.306	1.46	0.301	1.25	0.229	0.84	0.107	1.22	0.209	0.731	0.157	1.13	0.199	0.993	0.412	3.28	0.34	1.97
C=CN(C(=O)N1CCN(c2cc3c(cc2F)c(=O)c(C(=O)O)cn3C2CC2)CC1)c1nc(-c2ccc(OC)cc2)cs1	3.39	> 100	3.77	> 100	2.39	7.52	3.93	> 100	3.42	> 100	4.11	> 100	3.54	> 100	2.67	6.95	5.13	> 100	2.97	7.18
COc1cc(/C=C/c2cc(/C=C/c3ccc(O)c(OC)c3)n(C(=O)c3ccc(Cl)cc3)n2)ccc1O	3.3	12.8	1.03	13.7	1.83	8.32	3.03	13.9	2.15	47.9	1.31	10.1	2.03	20.4	0.595	4.32	3.66	18.2	3.79	13.2
O=C(NCCCCN1CCOCC1)c1cc2ccccc2o1	> 100	> 100	> 100	> 100	> 100	> 100	> 100	> 100	> 100	> 100	> 100	> 100	> 100	> 100	> 100	> 100	> 100	> 100	> 100	> 100
Nc1nc(/C=C\c2ccc([N+](=O)[O-])s2)nc(N2CCN(c3ccccc3)CC2)n1	33.6	> 100	19	41.4	21.8	48	21.9	51.4	17.2	31.5	24.9	59.8	24.1	59.1	16	31.5	40	98.3	20.8	44.2
CC(=O)O[C@@H]1C2CCC3C(CC[C@@]4(C)C3CC[C@@H]4C(C)N(C)C)[C@@]2(C)CC[C@@H]1NC(=O)C=C(C)C (some centres undefined)	2.58	6.27	3.56	12.8	6.31	22.5	4	16.4	1.54	3.49	1.91	3.89	1.67	3.31	2.74	8.58	3.33	14.1	2.33	4.98
Cc1nc([N+](=O)[O-])cn1-c1nc2ccccn2c1[N+](=O)[O-]	–	> 100	–	> 100	–	> 100	–	83.6	–	> 100	–	> 100	–	> 100	–	> 100	–	> 100	–	> 100
O=c1oc2ccc(I)cc2c(=O)n1-c1ccc(Br)cc1F	2.82	> 39.7	0.751	10.7	0.525	2.67	1.04	28.8	0.621	2.38	0.462	2.55	0.5	10.6	0.396	4.85	3.55	> 100	0.735	5.02
CNC(=O)c1ccc(N2C(=S)N(c3cnc(C#N)c(C(F)(F)F)c3)C(=O)C23CCC3)cc1F	> 100	> 100	> 100	> 100	> 77	> 100	> 100	> 100	> 95.4	> 100	98.3	> 100	> 100	> 100	> 100	> 100	> 100	> 100	> 95	> 100
O=C(O)CCNCC(=O)O	–	> 100	–	> 100	–	> 100	–	> 100	–	> 100	–	> 100	–	> 100	–	> 100	–	> 100	–	> 100
CCc1ccc(Oc2c(-c3ccc(OCc4ccc(Cl)cc4)cc3O)n[nH]c2C(F)(F)F)cc1	2.02	4.22	1.89	4	2.04	3.95	2.64	7.44	1.67	3.19	1.78	3.47	2.05	4.1	1.72	4.33	1.89	3.95	1.84	3.8
O=C1Nc2c(ccc(Cl)c2Cl)/C1=C/c1cc(Br)c(O)c(Br)c1	7.7	> 100	9.86	> 86.4	2.92	17.5	14.3	> 100	4.45	> 44.9	2.53	32.4	3.13	16.9	3.06	> 28.6	20.6	> 74	6.19	26.6
COC(COC(N)=O)C1=C(N2CC2)C(=O)C(C)=C(N2CC2)C1=O (centres undefined)	–	2.21	–	0.0449	–	0.304	–	0.0264	–	0.134	–	0.301	–	0.115	–	0.156	–	0.71	–	0.579
Clc1c(Cl)[n+](Cc2ccc3ccccc3c2)cn1Cc1ccc2ccccc2c1	3.32	11.7	1.92	3.66	1.67	3.09	1.53	3.01	1.45	2.87	1.4	3.15	1.53	2.98	1.12	2.67	1.54	3.32	1.74	3.51
O=C(CN(/C=C/C(=O)C(F)(F)F)c1ccc(Cl)cc1)c1ccc(Cl)cc1	13.2	32.1	8.01	20.7	17.6	43.9	15.1	29.5	4.09	20.7	15.5	50.8	11.9	35.3	2.1	5.93	16.1	32.9	7.45	20.8
O=C1NC(=C(Cl)Cl)/C(=N/S(=O)(=O)N2CCCCC2)N1	6.85	22.2	1.96	3.42	2.33	5.62	3.54	12.2	1.85	3.39	1.82	3.49	3.27	11.2	1.59	3.39	1.87	3.63	2.43	7.07
COc1ccc2c(c1)C(=O)c1c-2n(CCCN(C)C)c(=O)c2ccccc12	0.119	0.559	0.116	0.503	0.521	3.11	0.249	2.82	0.213	1.42	0.483	2.06	0.0517	0.454	0.188	4.04	0.515	12.7	0.929	6.22
O=C(O)c1cc(-c2ccc3cc4c(cc3c2)OCO4)nc2ccccc12	–	> 100	–	> 100	–	> 100	–	> 100	–	> 100	–	> 100	–	42.7	–	> 100	–	> 100	–	35.4
NS(=O)(=O)OC[C@H]1C[C@@H](Nc2ccnc3cc(-c4cccc(SC(F)(F)F)c4)nn23)[C@H](O)[C@@H]1O	0.206	0.445	0.176	0.36	0.0193	0.0484	0.029	0.19	0.0159	0.0571	0.0275	0.0652	0.259	0.679	0.0184	0.0363	0.0578	2.83	0.0278	0.108
CN(Cc1ccccc1)Cn1ccnc1	–	> 100	–	> 100	–	> 100	–	> 100	–	> 100	–	50.4	–	> 80.6	–	> 100	–	> 100	–	47.4
Cc1nn(CNc2ccccc2C(F)(F)F)c(=S)n1/N=C/c1cccc2cccnc12	> 100	> 100	95.3	> 100	> 100	> 100	> 100	> 100	44.6	> 100	> 100	> 100	> 100	> 100	> 100	> 100	> 100	> 100	> 100	> 100
O=c1c2ccccc2sc2c(NCCCNCCO)nc3ccccc3c12	1.53	3.41	1.39	2.81	2.81	11.1	1.6	3.33	1.3	2.6	1.58	3.3	0.605	2.01	1.82	3.57	1.56	3.31	1.93	3.6
COc1ccc2ncn(-c3cc(O[C@H](C)c4ccccc4C(F)(F)F)c(C(N)=O)s3)c2c1	0.119	4.22	3.17	25	0.474	7	0.0784	0.242	0.125	3.53	4.5	9.51	0.088	2.99	0.0995	2.51	0.162	14.9	2.55	6.28
CCOC(=O)Cc1c(C)c2cc(C(=O)c3ccccc3)c(O)cc2oc1=O	–	91.3	–	> 100	–	59.8	–	> 100	–	> 100	–	62.1	–	> 100	–	68.7	–	> 100	–	80.1
C/C=C(\C)c1cc(=O)c2c(C)cc3c(c2o1)C(=O)c1c(O)c(C2CC(C)(N(C)C)C(OC(C)=O)C(C)O2)cc(C2CC(N(C)C)C(O)C(C)O2)c1C3=O (centres undefined)	–	> 50	–	10	–	3.42	–	> 50	–	6.33	–	1.13	–	5.94	–	1.16	–	15.5	–	6.47
COc1c/c(=C2\C=c3ccccc3=N2)[nH]/c1=C\c1[nH]c(C)cc1C	0.139	19.2	< 0.0224	2.33	0.0319	31.3	0.0174	> 81.4	< 0.0368	1.71	0.0328	–	0.0268	> 100	0.493	> 41.9	0.25	> 56.5	0.628	32.7
